From the NIST ThermoML archive (doi:10.1021/je100078w)

What was measured:
[1] = wn = mass fraction of the nth substance listed; details: 101 kPa, Liquid
[2] = Liquid

C[NH+](CCO)CCO.F[B-](F)(F)F + O
[1]
Details | mass density, 303.15 K [kg/m3] | mass density, 313.15 K [kg/m3] | mass density, 323.15 K [kg/m3] | mass density, 333.15 K [kg/m3] | mass density, 343.15 K [kg/m3] | viscosity, 303.15 K [mPa·s] | viscosity, 313.15 K [mPa·s] | viscosity, 323.15 K [mPa·s] | viscosity, 333.15 K [mPa·s] | viscosity, 343.15 K [mPa·s]
w1 = 0.3001 | 1084.71 | 1075.11 | 1067.02 | 1058.01 | 1047.87 | – | – | – | – | –
w2 = 0.3001 | – | – | – | – | – | 1.245 | 1.041 | 0.8831 | 0.7874 | 0.7196

F[B-](F)(F)F.[NH3+]CCO [2-hydroxyethanaminium tetrafluoroborate] + O
[1], w1 = 0.3004
Details | mass density [kg/m3] | viscosity [mPa·s]
303.15 K | 1116.48 | 1.007
313.15 K | 1110.85 | 0.8573
323.15 K | 1104.95 | 0.7412
333.15 K | 1098.99 | 0.6743
343.15 K | 1093.41 | 0.5896

OCCN(CCO)CCO [triethanolamine]
[2], 101 kPa
Details | mass density [kg/m3] | viscosity [mPa·s]
303.15 K | 1114.43 | 398.2
313.15 K | 1108.34 | 195.9
323.15 K | 1102.23 | 103.6
333.15 K | 1095.96 | 60.81
343.15 K | 1089.6 | 37.94

CN(CCO)CCO.CN(CCO)CCO.O=S(=O)(O)O [2,2'-(methylimino)diethanol sulfate (2:1)] + O
[1]
Details | mass density, 303.15 K [kg/m3] | mass density, 313.15 K [kg/m3] | mass density, 323.15 K [kg/m3] | mass density, 333.15 K [kg/m3] | mass density, 343.15 K [kg/m3] | viscosity, 303.15 K [mPa·s] | viscosity, 313.15 K [mPa·s] | viscosity, 323.15 K [mPa·s] | viscosity, 333.15 K [mPa·s] | viscosity, 343.15 K [mPa·s]
w1 = 0.2999 | 1091.95 | 1087.46 | 1082.24 | 1075.89 | 1068.32 | – | – | – | – | –
w1 = 0.3001 | – | – | – | – | – | 1.795 | 1.446 | 1.196 | 1.012 | 0.872

CN(CCO)CCO [N-methyldiethanolamine]
[2], 101.33 kPa
Details | mass density [kg/m3]
303.15 K | 1033.74
313.15 K | 1026.72
323.15 K | 1019.48
333.15 K | 1012.32
343.15 K | 1002.25

[2], 101.33 kPa, Concentric cylinders viscometry
Details | viscosity [mPa·s]
303.15 K | 57.69
313.15 K | 34.79
323.15 K | 21.88
333.15 K | 14.6
343.15 K | 9.855
